For this experiment, the target named is T1, E1 ubiquitin-activating enzyme (UBE1) (Homo sapiens, UniProt P22314).
T1 construct: gene UBA1
T1 sequence (P22314 2-1058): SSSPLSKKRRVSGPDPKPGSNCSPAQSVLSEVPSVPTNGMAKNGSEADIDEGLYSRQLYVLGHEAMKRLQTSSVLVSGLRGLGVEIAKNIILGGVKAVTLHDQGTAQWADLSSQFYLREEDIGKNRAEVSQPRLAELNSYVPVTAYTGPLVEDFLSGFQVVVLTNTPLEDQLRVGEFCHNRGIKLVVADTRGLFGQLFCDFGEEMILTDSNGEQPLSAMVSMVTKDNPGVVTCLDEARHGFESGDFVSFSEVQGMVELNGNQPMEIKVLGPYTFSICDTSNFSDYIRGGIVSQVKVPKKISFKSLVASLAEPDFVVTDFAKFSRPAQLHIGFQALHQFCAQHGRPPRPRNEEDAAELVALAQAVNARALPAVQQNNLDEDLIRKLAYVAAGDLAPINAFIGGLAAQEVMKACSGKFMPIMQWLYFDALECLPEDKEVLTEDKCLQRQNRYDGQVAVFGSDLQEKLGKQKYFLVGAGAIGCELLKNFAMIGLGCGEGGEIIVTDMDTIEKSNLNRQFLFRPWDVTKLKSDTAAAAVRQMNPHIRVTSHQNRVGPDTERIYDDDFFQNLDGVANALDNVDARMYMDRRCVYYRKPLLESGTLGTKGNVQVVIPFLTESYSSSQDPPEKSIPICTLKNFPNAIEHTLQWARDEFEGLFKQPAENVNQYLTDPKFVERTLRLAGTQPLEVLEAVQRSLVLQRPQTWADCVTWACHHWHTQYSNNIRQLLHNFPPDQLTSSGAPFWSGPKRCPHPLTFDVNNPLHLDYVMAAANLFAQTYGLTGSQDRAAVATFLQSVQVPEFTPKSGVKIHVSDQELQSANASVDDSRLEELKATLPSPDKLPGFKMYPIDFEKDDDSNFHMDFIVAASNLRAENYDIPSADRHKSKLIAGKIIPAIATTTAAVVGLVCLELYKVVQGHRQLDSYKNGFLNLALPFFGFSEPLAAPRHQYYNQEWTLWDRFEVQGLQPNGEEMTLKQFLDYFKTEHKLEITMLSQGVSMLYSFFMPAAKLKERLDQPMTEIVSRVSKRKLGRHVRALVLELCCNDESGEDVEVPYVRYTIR
The experiment is described as follows: fluorescence polarization of E1~TAMRA-Ub complex formation with purified E1 (UbiReal), endpoint dose-response. It counts as biochemical. (In general: In fluorescence polarisation assays a small probe gives low polarisation when free and higher when bound to something large.)

In general, IC50 refers to the midpoint of a concentration-inhibition curve. For the compound `CCOC(=O)c1ccc(N2NC(=O)C(=Cc3ccc([N+](=O)[O-])o3)C2=O)cc1` [PYR-41], the concentration for half-maximal inhibition (IC50) was 9.15 µM.
